Test results taken from patent publication US5140014A (Abbott Laboratories, priority 1989, dated 1992).
Values after ≈ are worked out from the molar mass of the structure shown. Where two headings read alike, the source gives them in different places.

Key:
Test in all cases: in vitro antibacterial activity, agar dilution method (MIC)
Format in all cases: cell-based
Acinetobacter Sp = details: strain CMX 669; BHI agar, 20-24 hours
Procedure: (§1) The test medium was Brain Heart Infusion (BHI) agar. The antibacterial agent was dissolved at a concentration of 2,000 ug/mL. Test plates were then prepared, usually 12 two-fold dilutions. After adding the sample to the plates, 10 mL of cooled BHI agar medium was added to each plate. The organisms were grown overnight in BHI broth (Difco) in a 35°-37° C. incubator.
(§2) On the day of testing, the bacterial suspensions were diluted 1:100 in sterile distilled water, except for a few slow-growing organisms (usually Micrococcus and Streptococcus) which were diluted 1:10. The plate was then inoculated with approximately 10^4 organisms. This was incubated in a 35°-37° C. incubator for 20-24 hours. Thereafter, the plates were read to determine the minimum inhibitory concentration (MIC) defined as the lowest concentration of drug yielding no growth on the plate, a slight haze, or sparsely isolated colonies on the inoculum spot as compared to the growth control.

Enterobacter Aerogenes = details: strain ATCC 13048; BHI agar, 20-24 hours
Procedure: as §1, §2

Enterococcus Faecium = details: strain ATCC 8043; BHI agar, 20-24 hours
Procedure: as §1, §2

Haemophilus Influenzae = details: BHI agar, 20-24 hours
Procedure: as §1, §2

Klebsiella Pneumoniae = details: strain ATCC 8045; BHI agar, 20-24 hours
Procedure: as §1, §2

Micrococcus Luteus = test system: Micrococcus Luteus
Procedure: as §1, §2

Providencia Stuartii = details: strain CMX 640, BHI agar, 20-24 hours
Procedure: as §1, §2

Pseudomonas Aeruginosa = details: BHI agar, 20-24 hours
Procedure: as §1, §2

Staphylococcus Aureus = details: BHI agar, 20-24 hours
Procedure: as §1, §2

[1] = test system: Staphylococcus Epidermidis; details: strain 3519; BHI agar, 20-24 hours
Procedure: as §1, §2

Streptococcus Agalactiae = details: strain CMX 508; BHI agar, 20-24 hours
Procedure: as §1, §2

Streptococcus Bovis = details: Streptococcus equinus, strain A5169, BHI agar, 20-24 hours
Procedure: as §1, §2

Streptococcus Pyogenes = details: BHI agar, 20-24 hours
Procedure: as §1, §2

Escherichia Coli = details: BHI agar, 20-24 hours
Procedure: as §1, with “Compounds 1 to 8 were evaluated for antibacterial activity by the agar dilution method to determine the degree of in vitro susceptibility of aerobic microorganisms to antimicrobial agents. The test” for “The test”
as §2

Pseudomonas Cepacia = details: strain 296I, BHI agar, 20-24 hours
Procedure: as §1, with “Compounds 1 to 8 were evaluated for antibacterial activity by the agar dilution method to determine the degree of in vitro susceptibility of aerobic microorganisms to antimicrobial agents. The test” for “The test”
as §2

[2] = strain ATCC 4698, BHI agar, 20-24 hours

CCC1OC(=O)CC(O)C(C)C(OC2OC(C)CC(N(C)C)C2O)C(CC=O)CC(C)C(N(C)C)CCC2(C)OC2C1C (stereo not shown) [Example 2, [9R]-9-Deoxo-10,11-dihydro-9-N,N-dimethylamino-rosaramicin]
MIC (Acinetobacter Sp): 25 µg/mL (≈ 40.8 µM)
MIC (Enterobacter Aerogenes): 100 µg/mL (≈ 163 µM)
MIC (Enterococcus Faecium): 12.5 µg/mL (≈ 20.4 µM)
MIC (Haemophilus Influenzae; Haemophilus influenzae, ATCC9795, strain ATCC 9795, read-out: MIC): 2 µg/mL (≈ 3.26 µM)
MIC (Haemophilus Influenzae; Haemophilus influenzae, ATCC19418, strain ATCC 19418, read-out: MIC): 4 µg/mL (≈ 6.53 µM)
MIC (Haemophilus Influenzae; Haemophilus influenzae, ATCC43095, strain ATCC 43095, read-out: MIC): 4 µg/mL (≈ 6.53 µM)
MIC (Haemophilus Influenzae; Haemophilus influenzae, strain 566A, read-out: MIC): 2 µg/mL (≈ 3.26 µM)
MIC (Haemophilus Influenzae; Haemophilus influenzae, strain 588A, read-out: MIC): 2 µg/mL (≈ 3.26 µM)
MIC (Haemophilus Influenzae; Haemophilus influenzae, strain 632A, read-out: MIC): 2 µg/mL (≈ 3.26 µM)
MIC (Haemophilus Influenzae; Haemophilus influenzae, strain 747C, read-out: MIC): 2 µg/mL (≈ 3.26 µM)
MIC (Haemophilus Influenzae; Haemophilus influenzae, strain SOL AMP R, read-out: MIC): 2 µg/mL (≈ 3.26 µM)
MIC (Haemophilus Influenzae; Haemophilus influenzae, strain SPK AMP R, read-out: MIC): 0.5 µg/mL (≈ 0.816 µM)
MIC (Haemophilus Influenzae; strain 503B): 2 µg/mL (≈ 3.26 µM)
MIC (Haemophilus Influenzae; strain 504): 2 µg/mL (≈ 3.26 µM)
MIC (Haemophilus Influenzae; strain 519A): 1 µg/mL (≈ 1.63 µM)
MIC (Haemophilus Influenzae; strain 667A): 2 µg/mL (≈ 3.26 µM)
MIC (Haemophilus Influenzae; strain 751): 1 µg/mL (≈ 1.63 µM)
MIC (Haemophilus Influenzae; strain 1177): 0.25 µg/mL (≈ 0.408 µM)
MIC (Haemophilus Influenzae; strain 1435): 1 µg/mL (≈ 1.63 µM)
MIC (Haemophilus Influenzae; strain ATCC 10211): 2 µg/mL (≈ 3.26 µM)
MIC (Klebsiella Pneumoniae): 25 µg/mL (≈ 40.8 µM)
MIC (Micrococcus Luteus; Micrococcus luteus, ATCC9341, strain ATCC 9341, BHI agar, 20-24 hours, read-out: MIC): 3.1 µg/mL (≈ 5.06 µM)
MIC (Micrococcus Luteus; [2]): 6.2 µg/mL (≈ 10.1 µM)
MIC (Providencia Stuartii; Providencia stuartii, read-out: MIC): > 100 µg/mL
MIC (Pseudomonas Aeruginosa; Pseudomonas aeruginosa, strain A5007, read-out: MIC): > 100 µg/mL
MIC (Pseudomonas Aeruginosa; Pseudomonas aeruginosa, strain BMH10, read-out: MIC): > 100 µg/mL
MIC (Pseudomonas Aeruginosa; Pseudomonas aeruginosa, strain K799/WT, read-out: MIC): > 100 µg/mL
MIC (Pseudomonas Aeruginosa; strain K799/61): 3.1 µg/mL (≈ 5.06 µM)
MIC (Staphylococcus Aureus; strain 45): 25 µg/mL (≈ 40.8 µM)
MIC (Staphylococcus Aureus; strain 45 RAR2): 25 µg/mL (≈ 40.8 µM)
MIC (Staphylococcus Aureus; strain 642A): 50 µg/mL (≈ 81.6 µM)
MIC (Staphylococcus Aureus; strain A5177): 25 µg/mL (≈ 40.8 µM)
MIC (Staphylococcus Aureus; strain ATCC 6538P): 25 µg/mL (≈ 40.8 µM)
MIC (Staphylococcus Aureus; strain CMX 553): 25 µg/mL (≈ 40.8 µM)
MIC (Staphylococcus Aureus; strain NCTC 10649): 25 µg/mL (≈ 40.8 µM)
MIC [1]: 25 µg/mL (≈ 40.8 µM)
MIC (Streptococcus Agalactiae): 3.1 µg/mL (≈ 5.06 µM)
MIC (Streptococcus Bovis; read-out: MIC): 1.56 µg/mL (≈ 2.55 µM)
MIC (Streptococcus Pyogenes; Streptococcus pyogenes, strain 930 CONST, read-out: MIC): > 100 µg/mL
MIC (Streptococcus Pyogenes; Streptococcus pyogenes, strain EES61, read-out: MIC): 3.1 µg/mL (≈ 5.06 µM)
MIC (Streptococcus Pyogenes; strain 2548 INDUC): 6.2 µg/mL (≈ 10.1 µM)
MIC (Escherichia Coli; Escherichia coli, strain SS, read-out: MIC): 0.2 µg/mL (≈ 0.326 µM)
MIC (Escherichia Coli; strain DC-2): 50 µg/mL (≈ 81.6 µM)
MIC (Escherichia Coli; strain JUHL): 100 µg/mL (≈ 163 µM)
MIC (Escherichia Coli; strain KNK 437): 50 µg/mL (≈ 81.6 µM)
MIC (Pseudomonas Cepacia; Burkholderia cepacia, read-out: MIC): > 100 µg/mL

CCC1OC(=O)CC(O)C(C)C(OC2OC(C)CC(N(C)C)C2O)C(CC=O)CC(C)C(N(C)C)CCC2(C)OC2C1C (stereo not shown) [Example 3, [9S]-9-Deoxo-10,11-dihydro-9-N,N-dimethylamino-rosaramicin]
MIC (Acinetobacter Sp): 3.1 µg/mL (≈ 5.06 µM)
MIC (Enterobacter Aerogenes): 12.5 µg/mL (≈ 20.4 µM)
MIC (Enterococcus Faecium): 0.78 µg/mL (≈ 1.27 µM)
MIC (Haemophilus Influenzae; Haemophilus influenzae, strain 519A, read-out: MIC): 0.25 µg/mL (≈ 0.408 µM)
MIC (Haemophilus Influenzae; Haemophilus influenzae, strain 751, read-out: MIC): 4 µg/mL (≈ 6.53 µM)
MIC (Haemophilus Influenzae; Haemophilus influenzae, strain 1435, read-out: MIC): 0.5 µg/mL (≈ 0.816 µM)
MIC (Haemophilus Influenzae; Haemophilus influenzae, strain DILL AMP R, read-out: MIC): 0.5 µg/mL (≈ 0.816 µM)
MIC (Haemophilus Influenzae; strain 503B): 0.5 µg/mL (≈ 0.816 µM)
MIC (Haemophilus Influenzae; strain 504): 0.5 µg/mL (≈ 0.816 µM)
MIC (Haemophilus Influenzae; strain 566A): 1 µg/mL (≈ 1.63 µM)
MIC (Haemophilus Influenzae; strain 588A): 1 µg/mL (≈ 1.63 µM)
MIC (Haemophilus Influenzae; strain 632A): 1 µg/mL (≈ 1.63 µM)
MIC (Haemophilus Influenzae; strain 667A): 0.5 µg/mL (≈ 0.816 µM)
MIC (Haemophilus Influenzae; strain 747C): 1 µg/mL (≈ 1.63 µM)
MIC (Haemophilus Influenzae; strain 1177): 0.12 µg/mL (≈ 0.196 µM)
MIC (Haemophilus Influenzae; strain ATCC 9795): 1 µg/mL (≈ 1.63 µM)
MIC (Haemophilus Influenzae; strain ATCC 10211): 0.5 µg/mL (≈ 0.816 µM)
MIC (Haemophilus Influenzae; strain ATCC 19418): 1 µg/mL (≈ 1.63 µM)
MIC (Haemophilus Influenzae; strain ATCC 43095): 1 µg/mL (≈ 1.63 µM)
MIC (Haemophilus Influenzae; strain SOL AMP R): 1 µg/mL (≈ 1.63 µM)
MIC (Haemophilus Influenzae; strain SPK AMP R): 0.25 µg/mL (≈ 0.408 µM)
MIC (Klebsiella Pneumoniae): 6.2 µg/mL (≈ 10.1 µM)
MIC (Micrococcus Luteus; Micrococcus luteus, ATCC9341): 0.2 µg/mL (≈ 0.326 µM)
MIC (Micrococcus Luteus; [2]): 0.39 µg/mL (≈ 0.636 µM)
MIC (Providencia Stuartii): > 100 µg/mL
MIC (Pseudomonas Aeruginosa; strain A5007): > 100 µg/mL
MIC (Pseudomonas Aeruginosa; strain BMH10): 100 µg/mL (≈ 163 µM)
MIC (Pseudomonas Aeruginosa; strain K799/61): 0.78 µg/mL (≈ 1.27 µM)
MIC (Pseudomonas Aeruginosa; strain K799/WT): 100 µg/mL (≈ 163 µM)
MIC (Staphylococcus Aureus; strain 45): 0.78 µg/mL (≈ 1.27 µM)
MIC (Staphylococcus Aureus; strain 45 RAR2): 1.56 µg/mL (≈ 2.55 µM)
MIC (Staphylococcus Aureus; strain 642A): 1.56 µg/mL (≈ 2.55 µM)
MIC (Staphylococcus Aureus; strain A5177): 0.78 µg/mL (≈ 1.27 µM)
MIC (Staphylococcus Aureus; strain ATCC 6538P): 1.56 µg/mL (≈ 2.55 µM)
MIC (Staphylococcus Aureus; strain CMX 553): 1.56 µg/mL (≈ 2.55 µM)
MIC (Staphylococcus Aureus; strain NCTC 10649): 0.78 µg/mL (≈ 1.27 µM)
MIC [1]: 1.56 µg/mL (≈ 2.55 µM)
MIC (Streptococcus Agalactiae): 0.2 µg/mL (≈ 0.326 µM)
MIC (Streptococcus Bovis): 0.05 µg/mL (≈ 0.0816 µM)
MIC (Streptococcus Pyogenes; strain 930 CONST): > 100 µg/mL
MIC (Streptococcus Pyogenes; strain 2548 INDUC): 0.78 µg/mL (≈ 1.27 µM)
MIC (Streptococcus Pyogenes; strain EES61): 0.1 µg/mL (≈ 0.163 µM)
MIC (Escherichia Coli; strain DC-2): 6.2 µg/mL (≈ 10.1 µM)
MIC (Escherichia Coli; strain SS): 0.1 µg/mL (≈ 0.163 µM)
MIC (Pseudomonas Cepacia): > 100 µg/mL
